These results are taken from US20240246955A1, “TROPOMYOSIN RECEPTOR KINASE (TRK) DEGRADATION COMPOUNDS AND METHODS OF USE” (CULLGEN (SHANGHAI), INC., priority 2021, published 2024).

Holding throughout (type): cell-based
The test system of test [1] is KM12 cells. Put plainly: KM12 cell viability assay (CellTiter-Glo). Particulars: for IC50: Homo sapiens, 72 h, KM12 cells, 3 days, CellTiter-Glo. The procedure:
The kinase activity of TRK is known to play important roles in tumors expressing TRK-fusion proteins, as TRK kinase inhibitors compromise cell proliferation, survival, and induce marked clinical responses (Amatu et al., 2016; Drilon et al., 2018; Drilon et al., 2017; Khotskaya et al., 2017). KM12 cells seeded in 96-well plates were treated with heterobifunctional compounds following a 11-point 3-fold serial dilution. Three days after treatment, cell viability was determined using the CellTiter-Glo kit, and normalized to the mean values of 3 replicates of untreated cells. Dose-dependent response was analyzed following the least-squares non-linear regression method using the GraphPad Prism software. Each data point in the figure represents the mean values of three technical replicates ±standard deviation.
KM12 cells seeded in 96-well plates were treated with heterobifunctional compounds following a 11-point 3-fold serial dilution for 3 days.
(§1) KM12, TRKA G595R mutated KM12, HEL, and other cells were cultured at 37° C. with 5% CO2 in DMEM or RPMI 1640 Medium supplemented with 10% fetal bovine serum. Cells were authenticated using the short tandem repeat (STR) assays. Mycoplasma test results were negative.
(§2) Cells were seeded at a density of 5000 cells per well in 96-well assay plates and treated with test compounds following a 11-point 3-fold serial dilution. Three days later, cell viability was determined using the CellTiter-Glo assay kit (Promega) according to the manufacturer's instructions. The dose-response curves were determined and IC50 values were calculated using the GraphPad Prism software following a nonlinear regression (least squares fit) method.

Test [2] addresses T1, TPM3-TRKA fusion protein (Homo sapiens, UniProt P04629).
T1 construct: TPM3 (N-terminal part of tropomyosin alpha-3, natural fusion partner); endogenous in cells; host or cells: KM12 colon cancer cells; the other entry of the earlier key: TPM3 (P06753, Tropomyosin alpha-3 chain)
Description: TPM3-TRKA degradation in KM12 cells (Western blot). Particulars: 16 hours, TRK protein, immunoblot; for inhibition at 0.01 µM: 10 nM; for inhibition at 0.1 µM: 100 nM. The procedure: Specific exemplary heterobifunctional compounds were characterized in KM12 cells. KM12 cells that express TPM3-TRKA fusion protein were treated with 10 nM or 100 nM heterobifunctional compounds disclosed herein or their corresponding warheads/inhibitors for 16 hours. Cells were collected, lysed and subject to immunoblotting using an antibody specific to TRK proteins.
KM12 cells were treated with heterobifunctional compounds at 10 nM or 100 nM for 16 hours.
Cultured cells were washed with cold PBS once and lysed in cold RIPA buffer supplemented with protease inhibitors and phosphatase inhibitors (Beyotime Biotechnology). The solutions were then incubated at 4° C. for 30 minutes with gentle agitation to fully lyse cells. Cell lysates were centrifuged at 13,000 rpm for 10 minutes at 4° C. and pellets were discarded. Total protein concentrations in the lysates were determined by BCA assays (Beyotime Biotechnology). Cell lysates were mixed with Laemmli loading buffer to 1× and heated at 99° C. for 5 min. Proteins were resolved on SDS-PAGE and visualized by chemiluminescence. Images were taken by a ChemiDoc MP Imaging system (Bio-Rad). Protein bands were quantitated using the software provided by Bio-Rad.
The percentage of TRK protein degradation of each compound at 10 nM and 100 nM was determined in KM12 cells as described in Methods. The percentage of degradation of each compound was indicated in the following categories: N/A: data not available; −: no degradation; +: degradation less than 50%; ++: degradation equal or greater than 50% but less than […]; +++: degradation equal or greater than 80%.
Background: A western blot detects proteins with antibodies after separation by electrophoresis.

The subject of test [3] is TRKA G595R mutated KM12 cells. Description: Cell viability assay in TRKA G595R mutated KM12 cells (CellTiter-Glo). As to conditions: Homo sapiens, 72 h, 3 days. The method, then:
as §1, §2
The activities of selected compounds on cell viability (IC50 values) and TMP3-TRKA degradation (percentage degradation at 10 nM) in KM12 cells or KM12-G595R mutated KM12 cells (KM12-G595R) are listed in Table 2.

Bounds are passed on as bounds.

T1 sequence (P04629 with tags, fused parts or gaps): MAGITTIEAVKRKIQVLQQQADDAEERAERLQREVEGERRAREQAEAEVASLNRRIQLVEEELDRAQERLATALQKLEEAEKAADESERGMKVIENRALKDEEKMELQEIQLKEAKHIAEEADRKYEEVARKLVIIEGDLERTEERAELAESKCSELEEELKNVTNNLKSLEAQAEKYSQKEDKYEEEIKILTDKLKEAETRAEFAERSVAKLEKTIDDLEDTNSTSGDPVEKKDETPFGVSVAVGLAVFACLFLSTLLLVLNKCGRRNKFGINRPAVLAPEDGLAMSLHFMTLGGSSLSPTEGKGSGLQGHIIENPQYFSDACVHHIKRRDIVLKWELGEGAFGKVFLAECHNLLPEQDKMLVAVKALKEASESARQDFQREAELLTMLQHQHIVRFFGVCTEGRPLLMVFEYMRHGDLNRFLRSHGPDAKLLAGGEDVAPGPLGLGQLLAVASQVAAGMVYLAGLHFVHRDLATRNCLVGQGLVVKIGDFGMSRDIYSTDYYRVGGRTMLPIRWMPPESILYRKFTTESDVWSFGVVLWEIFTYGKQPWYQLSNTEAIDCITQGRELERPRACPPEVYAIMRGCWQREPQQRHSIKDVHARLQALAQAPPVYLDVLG

Regarding `COCCN1C[C@@H](NC(=O)Nc2c(C)c(-c3cnc(N4CCN(C(=O)CNc5ccc6c(c5)C(=O)N(C5CCC(=O)NC5=O)C6=O)CC4)nc3)nn2-c2ccccc2)[C@H](c2cccc(F)c2)C1` (stereo partly drawn) [CPD-019, 1-(3-(2-(4-((2-(2,6-dioxopiperidin-3-yl)-1,3-dioxoisoindolin-5-yl)glycyl)piperazin-1-yl)pyrimidin-5-yl)-4-methyl-1-phenyl-1H-pyrazol-5-yl)-3-((3S,4R)-4-(3-fluorophenyl)-1-(2-methoxyethyl)pyrrolidin-3-yl)urea], in test [1] (11-point 3-fold serial dilution, 3 days (FIG. 3)), the “viability of KM12 cells” value is recorded as “inhibited the viability”. Besides, half-maximal inhibition in test [1] (IC50) required 9.2 nM. For the same compound, in test [2], the inhibition (usually the relative decrease from the control value, in per cent) at 0.01 µM is above 80% and the inhibition at 0.1 µM is above 80%.
Take `COCCN1C[C@@H](NC(=O)Nc2c(C)c(-c3cnc(N4CCN(C(=O)CCCCCOc5cc(-c6scnc6C)ccc5CNC(=O)[C@@H]5C[C@@H](O)CN5C(=O)[C@@H](NC(=O)C5(F)CC5)C(C)(C)C)CC4)nc3)nn2-c2ccccc2)[C@H](c2cccc(F)c2)C1` [CPD-020, (2S,4R)-1-((S)-2-(1-fluorocyclopropane-1-carboxamido)-3,3-dimethylbutanoyl)-N-(2-((6-(4-(5-(5-(3-((3S,4R)-4-(3-fluorophenyl)-1-(2-methoxyethyl)pyrrolidin-3-yl)ureido)-4-methyl-1-phenyl-1H-pyrazol-3-yl)pyrimidin-2-yl)piperazin-1-yl)-6-oxohexyl)oxy)-4-(4-methylthiazol-5-yl)benzyl)-4-hydroxypyrrolidine-2-carboxamide]: inhibition in test [1] was half-maximal at 293 nM (IC50). Also, the inhibition at 0.1 µM in test [2] fell in the range of 50 to 800%.
Consider `COCCN1C[C@@H](NC(=O)Nc2c(C)c(-c3cnc(N4CCN(C(=O)COc5ccc6c(c5)C(=O)N(C5CCC(=O)NC5=O)C6=O)CC4)nc3)nn2-c2ccccc2)[C@H](c2cccc(F)c2)C1` (stereo partly drawn) [CPD-023, 1-(3-(2-(4-(2-((2-(2,6-dioxopiperidin-3-yl)-1,3-dioxoisoindolin-5-yl)oxy)acetyl)piperazin-1-yl)pyrimidin-5-yl)-4-methyl-1-phenyl-1H-pyrazol-5-yl)-3-((3S,4R)-4-(3-fluorophenyl)-1-(2-methoxyethyl)pyrrolidin-3-yl)urea], for which the half-maximal inhibitory concentration (IC50) (usually the concentration that gives 50% inhibition) in test [3] is 44 nM; in test [1], 6.46 nM. Also, the inhibition at 0.01 µM in test [2] is above 80%. Further, the inhibition at 0.1 µM in test [2] was above 80%.
`COCCN1C[C@@H](NC(=O)Nc2c(C)c(-c3cnc(N4CCN(C(=O)COc5cccc6c5C(=O)N(C5CCC(=O)NC5=O)C6=O)CC4)nc3)nn2-c2ccccc2)[C@H](c2cccc(F)c2)C1` (stereo partly drawn) [CPD-024, 1-(3-(2-(4-(2-((2-(2,6-dioxopiperidin-3-yl)-1,3-dioxoisoindolin-4-yl)oxy)acetyl)piperazin-1-yl)pyrimidin-5-yl)-4-methyl-1-phenyl-1H-pyrazol-5-yl)-3-((3S,4R)-4-(3-fluorophenyl)-1-(2-methoxyethyl)pyrrolidin-3-yl)urea]: inhibition in test [3] was half-maximal at 314 nM (IC50). Besides, in test [1], half-maximal inhibition (IC50) required 86.9 nM. Also, in test [2], the inhibition at 0.01 µM is below 50% and the inhibition at 0.1 µM lay in the range of 50 to 800%.
On the same counts, the results for `COCCN1C[C@@H](NC(=O)Nc2c(C)c(-c3cnc(N4CCN(C(=O)CCc5cccc6c5C(=O)N(C5CCC(=O)NC5=O)C6=O)CC4)nc3)nn2-c2ccccc2)[C@H](c2cccc(F)c2)C1` (stereo partly drawn) [CPD-025, 1-(3-(2-(4-(3-(2-(2,6-dioxopiperidin-3-yl)-1,3-dioxoisoindolin-4-yl)propanoyl)piperazin-1-yl)pyrimidin-5-yl)-4-methyl-1-phenyl-1H-pyrazol-5-yl)-3-((3S,4R)-4-(3-fluorophenyl)-1-(2-methoxyethyl)pyrrolidin-3-yl)urea] are 158 nM, 30 nM, below 50% and 50 to 800%.
For `COCCN1C[C@@H](NC(=O)Nc2c(C)c(-c3cnc(N4CCN(C(=O)CCc5ccc6c(c5)C(=O)N(C5CCC(=O)NC5=O)C6=O)CC4)nc3)nn2-c2ccccc2)[C@H](c2cccc(F)c2)C1` (stereo partly drawn) [CPD-026, 1-(3-(2-(4-(3-(2-(2,6-dioxopiperidin-3-yl)-1,3-dioxoisoindolin-5-yl)propanoyl)piperazin-1-yl)pyrimidin-5-yl)-4-methyl-1-phenyl-1H-pyrazol-5-yl)-3-((3S,4R)-4-(3-fluorophenyl)-1-(2-methoxyethyl)pyrrolidin-3-yl)urea] the same measures were 301 nM, 42.1 nM, above 80% and above 80%.
For `COCCN1C[C@@H](NC(=O)Nc2c(C)c(-c3cnc(N4CCN(CCOc5cccc6c5C(=O)N(C5CCC(=O)NC5=O)C6=O)CC4)nc3)nn2-c2ccccc2)[C@H](c2cccc(F)c2)C1` (stereo partly drawn) [CPD-027, 1-(3-(2-(4-(2-((2-(2,6-dioxopiperidin-3-yl)-1,3-dioxoisoindolin-4-yl)oxy)ethyl)piperazin-1-yl)pyrimidin-5-yl)-4-methyl-1-phenyl-1H-pyrazol-5-yl)-3-((3S,4R)-4-(3-fluorophenyl)-1-(2-methoxyethyl)pyrrolidin-3-yl)urea] the same measures were 4.47 nM, 3.13 nM, 50 to 800% and 50 to 800%.
Turning to `COCCN1C[C@@H](NC(=O)Nc2c(C)c(-c3cnc(N4CCN(CCOc5ccc6c(c5)C(=O)N(C5CCC(=O)NC5=O)C6=O)CC4)nc3)nn2-c2ccccc2)[C@H](c2cccc(F)c2)C1` (stereo partly drawn) [CPD-028, 1-(3-(2-(4-(2-((2-(2,6-dioxopiperidin-3-yl)-1,3-dioxoisoindolin-5-yl)oxy)ethyl)piperazin-1-yl)pyrimidin-5-yl)-4-methyl-1-phenyl-1H-pyrazol-5-yl)-3-((3S,4R)-4-(3-fluorophenyl)-1-(2-methoxyethyl)pyrrolidin-3-yl)urea], the 50% inhibitory concentration (IC50) in test [3] amounted to 30.4 nM. The same compound yielded an IC50 in test [1] of 4.1 nM. In addition, in test [2], the inhibition at 0.01 µM was above 80% and the inhibition at 0.1 µM lay within 50 to 800%.
For `COCCN1C[C@@H](NC(=O)Nc2c(C)c(-c3cnc(N4CCN(CCCc5cccc6c5C(=O)N(C5CCC(=O)NC5=O)C6=O)CC4)nc3)nn2-c2ccccc2)[C@H](c2cccc(F)c2)C1` (stereo partly drawn) [CPD-029, 1-(3-(2-(4-(3-(2-(2,6-dioxopiperidin-3-yl)-1,3-dioxoisoindolin-4-yl)propyl)piperazin-1-yl)pyrimidin-5-yl)-4-methyl-1-phenyl-1H-pyrazol-5-yl)-3-((3S,4R)-4-(3-fluorophenyl)-1-(2-methoxyethyl)pyrrolidin-3-yl)urea] the same measures were 277 nM, 13.4 nM, below 50% and 50 to 800%.
On the same counts, the results for `COCCN1C[C@@H](NC(=O)Nc2c(C)c(-c3cnc(N4CCN(CCNc5cccc6c5C(=O)N(C5CCC(=O)NC5=O)C6=O)CC4)nc3)nn2-c2ccccc2)[C@H](c2cccc(F)c2)C1` (stereo partly drawn) [CPD-030, 1-(3-(2-(4-(2-((2-(2,6-dioxopiperidin-3-yl)-1,3-dioxoisoindolin-4-yl)amino)ethyl)piperazin-1-yl)pyrimidin-5-yl)-4-methyl-1-phenyl-1H-pyrazol-5-yl)-3-((3S,4R)-4-(3-fluorophenyl)-1-(2-methoxyethyl)pyrrolidin-3-yl)urea] are 5.13 nM, 1.09 nM, 50 to 800% and 50 to 800%.
